Tests used:
[1] = test system: Interferon-response proteins in DL-40 ALCL xenograft tumors; test: Global proteomics and gene ontology of DL-40 ALCL xenograft tumors, 48 hours after dose; type: in vivo, mice; set-up: Log2 vs Vehicle, 0AS1: dose or concentration left out as unconfirmed
Procedure: […] Gene ontology analysis was done by using BINGO, a Java-based tool that is implemented as a plugin for Cytoscape. Default settings were used to assess the overexpression of GO categories and the interactions among altered proteins were determined using the STRING database, with a cutoff score of 700.

DL-40 ALCL tumors = test: DL-40 ALCL xenograft efficacy (Example 19); type: in vivo, mice
Procedure: A xenograft study was conducted in female NOD SCID mice bearing DL-40 ALCL tumors. […]

KI-JK ALCL tumors = test: KI-JK ALCL xenograft efficacy (Example 20); type: in vivo, mice; conditions: 100 μg/kg PO daily for 21 days
Procedure: A xenograft study was conducted in female NOD SCID mice bearing KI-JK ALCL tumors.
Data are expressed as MTV±SEM.

IKZF1/3 = test: Biomarker assessment in MM and ALCL tumor bearing studies; type: in vivo

## O=C1CC[C@H](N2C(=O)c3cccc4c(Cc5ccc(CN6CCOCC6)cc5)ccc2c34)C(=O)N1 (single isomer, unassigned) [Compound 1]
[1]; 0.1 nM for 48 hr
  Log2 vs Vehicle, NUP35: −0.023
  Log2 vs Vehicle, NUP37: −0.009
  Log2 vs Vehicle, NUP43: −0.042
  Log2 vs Vehicle, NUP50: −0.009
  Log2 vs Vehicle, NUP54: 0.014
  Log2 vs Vehicle, NUP62: −0.019
  Log2 vs Vehicle, NUP85: −0.05
  Log2 vs Vehicle, NUP88: 0.031
  Log2 vs Vehicle, NUP93: 0.029
  Log2 vs Vehicle, NUP107: 0.033
  Log2 vs Vehicle, NUP133: −0.019
  Log2 vs Vehicle, NUP153: −0.013
  Log2 vs Vehicle, NUP155: 0.001
  Log2 vs Vehicle, NUP160: 0.026
  Log2 vs Vehicle, NUP188: 0.029
  Log2 vs Vehicle, NUP205: −0.001
  Log2 vs Vehicle, NUP210: 0.045
  Log2 vs Vehicle, NUP214: −0.08
  Log2 vs Vehicle, NUPL2: 0.073
  Log2 vs Vehicle, OAS2: 0.478
  Log2 vs Vehicle, OAS3: 0.884
  Log2 vs Vehicle, OASL: 0.111
  Log2 vs Vehicle, P0M121: −0.05
  Log2 vs Vehicle, P0M121C: −0.039
  Log2 vs Vehicle, PDE12: 0.013
  Log2 vs Vehicle, PIAS1: −0.114
  Log2 vs Vehicle, PINI: 0.05
  Log2 vs Vehicle, PLCG1: 0.052
  Log2 vs Vehicle, PML: 0.176
  Log2 vs Vehicle, PPM1B: −0.001
  Log2 vs Vehicle, PRKCD: 0.506
  Log2 vs Vehicle, PSMB8: 0.021
  Log2 vs Vehicle, PTPN1: 0.009
  Log2 vs Vehicle, PTPN6: 0.402
  Log2 vs Vehicle, PTPN11: 0.001
  Log2 vs Vehicle, RAE1: −0.034
  Log2 vs Vehicle, RANBP2: −0.044
  Log2 vs Vehicle, RNASEL: −0.218
  Log2 vs Vehicle, RPS27A: −0.054
  Log2 vs Vehicle, SAMHD1: 0.128
  Log2 vs Vehicle, SP100: −0.028
  Log2 vs Vehicle, STAT1: 0.218
  Log2 vs Vehicle, STAT2: 0.271
  Log2 vs Vehicle, TPR: −0.053
  Log2 vs Vehicle, TRIM5: 0.107
  Log2 vs Vehicle, TRIM14: 0.183
  Log2 vs Vehicle, TRIM21: 0.175
  Log2 vs Vehicle, TRIM22: 0.331
  Log2 vs Vehicle, TRIM25: 0.161
  Log2 vs Vehicle, TRIM26: 0.019
  Log2 vs Vehicle, TRIM35: 0.144
  Log2 vs Vehicle, TRIM38: 0.119
  Log2 vs Vehicle, TYK2: −0.039
  Log2 vs Vehicle, UBA7: 0.366
  Log2 vs Vehicle, UBE2E1: −0.218
  Log2 vs Vehicle, UBE2L6: 0.13
  Log2 vs Vehicle, UBE2N: 0.02
  Log2 vs Vehicle, VCAM1: −0.744
[1]; 48 hours after oral 100 μg/kg
  network impacted (gene ontology): Interferon (IFN) signaling was the most prominent network impacted
[1]; for 48 hr
  Log2 vs Vehicle, 0AS1: 1.414
DL-40 ALCL tumors; 3 μg/kg PO daily
  Statistical Significance Compared to Vehicle: 0.0111
DL-40 ALCL tumors; 10 μg/kg PO daily
  Statistical Significance Compared to Vehicle: 0.0006
DL-40 ALCL tumors; 30 μg/kg PO daily
  Statistical Significance Compared to Vehicle: 0.0004
DL-40 ALCL tumors; 100 μg/kg PO daily
  Statistical Significance Compared to Vehicle: 0.0004
DL-40 ALCL tumors; 300 μg/kg PO daily
  Statistical Significance Compared to Vehicle: 0.0004
DL-40 ALCL tumors; 30, 100, and 300 μg/kg, 21 days
  tumor volume: able to reduce tumor volume
KI-JK ALCL tumors
  tumor volume: reduced tumor volume
IKZF1/3
  degradation of both IKZF1/3: > 75%
  duration of IKZF1/3 degradation: 24 h

From US20230190760A1, “ADVANTAGEOUS THERAPIES FOR DISORDERS MEDIATED BY IKAROS OR AIOLOS” (C4 Therapeutics, Inc., priority 2020, published 2023)
